Results from paper PMC12392461, “Beyond Estrogenicity: A Comparative Assessment of Bisphenol A and Its Alternatives in In Vitro Assays Questions Safety of Replacements” (Environmental Science & Technology, 2025).
Where two headings read alike, the source gives them in different places.

What was measured:
[1] = test system: Mitochondrial Membrane Potential; assay: cells; details: for EC10, linear / logEC10: MMP bioassay, dosing range all; for EC10, linear: linear model; for Specificity ratio (SRbaseline) SRMMP: against baseline cytotoxicity; for log(1/EC10) MMP: input of the ToxPi score, values up to 1.00; for Relative effect potency REPMMP: relative to BPA; for logEC10: log-logistic model; for SR (MMP inhibition): specificity ratio
Excerpt: (§1) All bioassay media components and the ERα-UAS-bla GripTite and PPARγ-UAS-bla cells were obtained from Thermo Fisher Scientific (Waltham, MA, USA). AREc32 reporter gene cells based on MCF7 were provided by C. Roland Wolf (Cancer Research UK); AhR CALUX cells (H4L7.5c2 derived from H4IIe) were provided by Michael Denison (UC Davis, USA); and SH-SY5Y cells were purchased from Sigma-Aldrich.
(§2) Cell culture conditions and bioassay protocols including response detection are provided in Text S2.1–2.4 and Table S3. − Cell viability was determined from cell confluency using an IncuCyte S3 Live-Cell Analysis System (Sartorius AG, Essen, Germany) before and after exposure, except for SH-SY5Y cells (live–dead staining with Nuclear Green LcS1 and propidium iodide, Abcam, UK). For metabolic activation experiments, cell viability was assessed using the ToxBLAzer DualScreen Kit (Thermo Fisher Scientific) to capture the remaining toxicity in ERα-UAS-bla GripTite after treatment with the aCYP catalyst (details in Text S2.4).
(§3) For ARE, the concentration that triggered an induction ratio of 1.5 (ECIR1.5) was used as the benchmark value, as detailed in Text S2.5. IC10 values also served as a threshold for data analysis in all assays; only concentrations below IC10 were considered when deriving EC10 or ECIR1.5. […]
(§4) S2: Cell culture and bioassays
(§5) S2.1: Cell Culturing Conditions
All suppliers and sources are given in detail in SI-Excel S3. The bioassay media for the different assays were prepared as follows: Assay medium for ER alpha-UAS-bla GripTite (ERα) and […]
2% charcoal-stripped FBS, and 100 U/mL penicillin-streptomycin. MitoOxTox and AhR assay medium was comprised of 90% DMEM with GlutaMAX, supplemented with 10% FBS, and 100 U/mL penicillin-streptomycin. […]
S2.2: Cell Seeding and Incubation. For all bioassays, cell suspensions in the respective assay medium were dispensed into each well of 384-well plates using a MultiFlo Dispenser (Biotek, (now Agilent), Winooski, VT, U.S.). After seeding, the plates were incubated at 37° C and 5% CO₂ for […]. The final cell densities and plate types were as follows: Black poly-D-lysine […]
(§6) 6500 cells/well, ERα: 5000 cells/well. White 384-well plates with a clear bottom (Product No.
NYC, U.S.) for AhR: 3250 cells/well. Black Collagen I coated plates were used (Product No.
S2.3: Chemical Dosing and Assay Analysis Procedures. The dosing procedure and high-throughput assay workflow have been described in detail before. 9 The dosing concentrations […]
Stock solutions were then either

[2] = biological target: T1, Aryl hydrocarbon receptor (Rattus norvegicus, UniProt P41738); details: for EC10, linear transformed / EC10, linear / logEC10: Bioassay AhR, dosing range all; for EC10, linear: linear model fit; for logEC10: log-logistic model fit; for SR-ScoreAhR: SR-Score, sigma k=1, x=5; for Specificity ratio (SRbaseline) SRAhR: against baseline cytotoxicity; for EC10, AhR: effect; for log(1/EC10) AhR: input of the ToxPi score, values up to 1.00
T1 sequence (P41738 10-853): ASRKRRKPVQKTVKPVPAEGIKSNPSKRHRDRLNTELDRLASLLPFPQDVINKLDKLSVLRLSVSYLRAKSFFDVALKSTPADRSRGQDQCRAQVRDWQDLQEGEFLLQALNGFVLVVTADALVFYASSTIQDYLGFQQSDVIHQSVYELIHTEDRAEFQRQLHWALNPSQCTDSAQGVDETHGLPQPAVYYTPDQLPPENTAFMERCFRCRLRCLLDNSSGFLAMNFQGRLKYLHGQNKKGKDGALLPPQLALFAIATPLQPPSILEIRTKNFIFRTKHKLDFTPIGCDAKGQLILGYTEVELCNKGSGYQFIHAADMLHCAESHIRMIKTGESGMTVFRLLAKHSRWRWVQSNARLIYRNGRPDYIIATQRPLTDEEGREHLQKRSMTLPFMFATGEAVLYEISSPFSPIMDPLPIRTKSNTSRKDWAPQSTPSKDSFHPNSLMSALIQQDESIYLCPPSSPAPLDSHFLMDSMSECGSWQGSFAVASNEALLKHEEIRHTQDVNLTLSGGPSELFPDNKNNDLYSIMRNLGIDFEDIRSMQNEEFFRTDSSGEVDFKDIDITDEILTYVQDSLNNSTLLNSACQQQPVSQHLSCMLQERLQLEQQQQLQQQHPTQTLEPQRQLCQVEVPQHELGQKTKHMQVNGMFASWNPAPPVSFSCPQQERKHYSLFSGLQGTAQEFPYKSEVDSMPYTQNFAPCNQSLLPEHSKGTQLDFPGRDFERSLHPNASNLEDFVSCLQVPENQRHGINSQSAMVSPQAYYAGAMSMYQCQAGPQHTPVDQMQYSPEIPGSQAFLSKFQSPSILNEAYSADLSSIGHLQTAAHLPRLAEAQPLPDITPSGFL
Excerpt: as §1, §2, §3, §4, §5
All suppliers and sources are given in detail in SI-Excel S3. The bioassay media for the different assays were prepared as follows: Assay medium for ER alpha-UAS-bla GripTite (ERα) and PPAR gamma-UAS-bla 293H (PPARγ) was prepared with 98% Opti-MEM, supplemented with 2% charcoal-stripped FBS, and 100 U/mL penicillin-streptomycin. MitoOxTox and AhR assay medium was comprised of 90% DMEM with GlutaMAX, supplemented with 10% FBS, and 100 U/mL penicillin-streptomycin. Neurotoxicity assay medium consisted of the neurobasal […]
(1 picture or pasted object on this page, not shown here) […]
medium, supplemented with 2% B-27 Supplement and 2 mM GlutaMAX Supplement. SH - SY5Y cells were differentiated with 10 µM all-trans retinoic acid prior to the assay.
S2.2: Cell Seeding and Incubation. For all bioassays, cell suspensions in the respective assay medium were dispensed into each well of 384-well plates using a MultiFlo Dispenser (Biotek, (now Agilent), Winooski, VT, U.S.). After seeding, the plates were incubated at 37° C and 5% CO₂ for […]. The final cell densities and plate types were as follows: Black poly-D-lysine coated 384-well plates (Product No. 354663, Corning Inc., NYC, U.S.) were used for PPARγ:
as §6
781098, Greiner, Kremsmünster, Austria) were utilized for the MitoOxTox assay: 2650

[3] = Arec32, read-out: EC10, MMP (M)
[4] = Arec32, read-out: EC10, linear transformed
[5] = against experimental cytotoxicity

SMILES	EC10 ([1]; Arec32, read-out: EC10, MMP) [M]	EC10 [1, 3] [M]	EC10 ([1]; Arec32, read-out: EC10, linear) [M]	EC10 [1, 4] [M]	EC10 ([1]; Arec32, read-out: logEC10) [M]	EC10, linear [1]	Specificity ratio (SRbaseline) SRMMP [1]	Relative effect potency REPMMP [1]	EC10, linear transformed [2]	EC10, linear [2]	logEC10 [2]	log(1/EC10) AhR [2]	further results
Oc1ccc(C2(c3ccc(O)cc3)CCCCC2)cc1 [BPZ, 1,1'-Bis(4-hydroxyphenyl)cyclohexane]	2.21e-05	2.21e-05	1.31e-05	2.39e-05	2.19e-05								
CC(C)(c1ccc(O)c(-c2ccccc2)c1)c1ccc(O)c(-c2ccccc2)c1 [BPPH, 2,2-Bis(2-hydroxy-5-biphenylyl)propane]	1.96e-06	1.96e-06		1.94e-06	1.95e-06	no effect	2.08	14.27	9.38E-06	9.54E-06	-5.02	0.99	Specificity ratio (SRcytotoxicity) SRMMP [1, 5]: 3.95; log(1/EC10) MMP [1]: 1.00; EC10, AhR (M) [2]: 9.54 × 10^–6 M; SR-ScoreAhR [2]: 0.0254; Specificity ratio (SRbaseline) SRAhR [2]: 0.43; Specificity ratio (SRcytotoxicity) SRAhR [2, 5]: 1.35; EC10, AhR [2]: 9.54 µM
Oc1ccc(Cc2ccc(O)cc2)cc1 [BPF, Bis(4-hydroxyphenyl)methane]			0.000167	0.000167	0.000166				2.17E-04	1.67E-04	masked by cytotoxicity	0.66	
CC(C)(c1ccc(OCC2CO2)cc1)c1ccc(OCC2CO2)cc1 (stereo not drawn) [BADGE, Bisphenol A diglycidyl ether]				9.1e-05		no effect				no effect	no effect		logEC10 [1]: no effect
CC(C)CC(C)(c1ccc(O)cc1)c1ccc(O)cc1 [BP-MIBK, 4,4'-(1,3-Dimethylbutylidene)diphenol]	1.14e-05	1.14e-05	7.7e-06	1.12e-05	1.15e-05					no effect	no effect	0.86	
CC(C)(c1cc(Br)c(O)c(Br)c1)c1cc(Br)c(O)c(Br)c1 [TBBPA, 3,3',5,5'-Tetrabromobisphenol A]	2.83e-05	2.83e-05	1.94e-05	2.89e-05	2.82e-05								
Cc1cc(Cc2cc(C)c(O)c(C)c2)cc(C)c1O [TMBPF, Bis(3,5-dimethyl-4-hydroxyphenyl)methane]				6.68e-05		no effect			1.03E-04	no effect	no effect		logEC10 [1]: no effect
CC(C)(c1ccc(O)cc1)c1ccc(O)cc1 [BPA, 4,4'-(Propane-2,2-diyl)diphenol, reference compound]	2.8e-05	2.8e-05	2.1e-05	2.79e-05	2.82e-05		0.92	1.00	3.80E-04	2.64E-04	no effect	0.79	EC10 (MMP inhibition) [1]: 28 µM; Specificity ratio (SRcytotoxicity) SRMMP ([1]; human, 24 h): 2.92; log(1/EC10) MMP [1]: 0.71; SR (MMP inhibition) [1]: 3; EC10, AhR (M) [2]: 2.64 × 10^–4 M; SR-ScoreAhR [2]: 0.00737; Specificity ratio (SRbaseline) SRAhR [2]: 0.10; EC10, AhR [2]: 264 µM; Specificity ratio (SRcytotoxicity) SRAhR ([2]; rat, 24 h): 0.00; SR (AhR) ([2]; specificity ratio): ≤ 10
Oc1ccc(Sc2ccc(O)cc2)cc1 [BPT, 4,4'-Thiodiphenol]	1.83e-05	1.83e-05		1.82e-05	1.82e-05	no effect			9.56E-05	no effect	masked by cytotoxicity	0.82	SR (MMP inhibition) [1]: > 10
O=S(=O)(c1ccc(O)cc1)c1ccc(OCc2ccccc2)cc1 [BPS-MPE, 4-[4-(benzyloxy)benzenesulfonyl]phenol]	5.59e-06	5.59e-06	3.72e-06	5.91e-06	5.62e-06		6.33	5.01		no effect	no effect	0.91	Specificity ratio (SRcytotoxicity) SRMMP [1, 5]: 21.99; SR (MMP inhibition) [1]: 22
CC1(C)[C@H](O)C(C)(C)[C@H]1O [t-TMCD, trans-2,2,4,4-Tetramethyl-1,3-cyclobutanediol]	0.0185	0.0185					0.0554	0.00152				0.30	
